Here are results for 7 molecules from PMC5988755, “First characterization of a microsporidial triosephosphate isomerase and the biochemical mechanisms of its inactivation to propose a new druggable target” (Scientific Reports, 2018).

The target in series [1] is T1, EiTIM (triosephosphate isomerase of E. intestinalis) (Encephalitozoon intestinalis, UniProt E0SA87).
T1 construct: gene Eint_110100; full length, synthetic codon-optimised gene (silent A479G) in pET-3aHisTEV, E. coli BL21(DE3)pLysS; N-terminal His-tag removed with TEV protease; homodimer
T1 sequence (E0SA87 1-242): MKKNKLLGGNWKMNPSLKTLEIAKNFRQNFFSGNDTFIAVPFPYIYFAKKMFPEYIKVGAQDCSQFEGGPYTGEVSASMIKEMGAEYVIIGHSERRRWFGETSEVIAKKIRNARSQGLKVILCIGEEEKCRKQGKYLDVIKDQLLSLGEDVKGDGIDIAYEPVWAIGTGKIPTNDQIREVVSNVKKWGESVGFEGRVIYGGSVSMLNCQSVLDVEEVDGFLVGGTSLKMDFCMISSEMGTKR
The series is described as follows: residual activity after incubation, alpha-GDH coupled assay (NADH, […] nm). In kind it is biochemical. The settings on record: read-out: 50% inactivation.

Series [2] addresses T1, EiTIM (triosephosphate isomerase of E. intestinalis). The description is as above. The class given is biochemical. The settings on record: covalent; 0.5 mM compound, 2 h at 37 °C; residual activity relative to untreated control; 3 Cys derivatized per subunit.
For series [3] the target is unchanged. The series is described as follows: thermal denaturation by CD at […] nm of derivatized enzyme. The class given is binding. The settings on record: covalent; 0.5 mM compound, 2 h at 37 °C, excess removed; untreated control Tm 52.8 ± 1.5 °C.
Series [4] shares this target. The series is described as follows: residual activity after incubation, alpha-GDH coupled assay (NADH, […] nm). In kind it is biochemical. Conditions: covalent (Cys derivatization suggested), 0.5 mg/mL enzyme, 2 h at 37 °C, drug 0-50 μM.
Substrate in series [5]: O=C[C@H](O)COP(=O)(O)O
Put plainly: purified protein. The settings on record: GAP to DHAP direction, 25 °C, 0.2 mM NADH, 0.9 U alpha-GDH, GAP 0.2-10 mM.

On to `CC(=C(CCOC(=O)C(C)C)SSC(CCOC(=O)C(C)C)=C(C)N(C=O)Cc1cnc(C)nc1N)N(C=O)Cc1cnc(C)nc1N` (stereo in doubt) [sulbutiamine], for which the IC50 in series [1] was 2.5 µM.
As for `O=C(O)c1cc(SSc2ccc([N+](=O)[O-])c(C(=O)O)c2)ccc1[N+](=O)[O-]` [DTNB, 5,5′-dithiobis(2-nitrobenzoic acid)], the IC50 in series [1] stood at 25 µM.
Regarding `CSS(C)(=O)=O` [MMTS], in series [2], the “Activity (%)^*” value stood at 17.3 ± 5.5%. For the same molecule, in series [3], the “Tm (°C)^*” value amounted to 49.8 ± 2.1 °C.
For `CS(=O)(=O)SCCS(=O)(=O)O` [MTSES, sodium (2-sulfonatoethyl) methanethiosulfonate], in series [2], the “Activity (%)^*” value worked out at 2.4 ± 1.1%. Further, the “Tm (°C)^*” value in series [3] came to 48.6 ± 1.9 °C.
As for `COc1ccc2[nH]c([S+]([O-])Cc3ncc(C)c(OC)c3C)nc2c1` (centres unmarked) [omeprazole], in series [4] (omeprazole pre-activated with acid (HCl, 3 h)), the 50% inactivation result was “sulbutiamine was two- and three-fold more effective than rabeprazole and omeprazole, respectively”.
`COCCCOc1ccnc(C[S+]([O-])c2nc3ccccc3[nH]2)c1C` (centres unmarked) [rabeprazole]: the 50% inactivation result in series [4] is “sulbutiamine was two- and three-fold more effective than rabeprazole and omeprazole, respectively”.

B1: EiTIM (triosephosphate isomerase of E. intestinalis) (Encephalitozoon intestinalis ATCC 50506) (protein)
chain: MKKNKLLGGNWKMNPSLKTLEIAKNFRQNFFSGNDTFIAVPFPYIYFAKKMFPEYIKVGAQDCSQFEGGPYTGEVSASMIKEMGAEYVIIGHSERRRWFGETSEVIAKKIRNARSQGLKVILCIGEEEKCRKQGKYLDVIKDQLLSLGEDVKGDGIDIAYEPVWAIGTGKIPTNDQIREVVSNVKKWGESVGFEGRVIYGGSVSMLNCQSVLDVEEVDGFLVGGTSLKMDFCMISSEMGTKR
As for B1, in series [5], the Km amounted to 830 ± 200 µM, the kcat came out at 1680 s⁻¹ and the kcat/Km came out at 2e+06 M⁻¹ s⁻¹.
